Laboratory results as given in patent US20060167057A1, “Compounds for the treatment of CNS and amyloid associated diseases” (priority 2004, published 2006).

Molecular target: T1, L1 transport system (large neutral amino acid carrier, L1-system carrier) (Rattus norvegicus, UniProt Q63016)
T1 construct: functionality of their endogenous transporters such as the L1-system carrier; endogenous in cells; host or cells: rat primary cerebrovascular (brain microcapillary) endothelial cells, RBEC
Assay: Competitive binding assay to the brain L1 transport system (L-[U-14C]phenylalanine on rat primary cerebrovascular endothelial cells)
Conditions: for Status of Binding: compounds of Example 4, 10^−6, 10^−5 and 10^−4, Δ versus phenylalanine
How it was run: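 Cells were primary cerebral microvascular endothelial cells from cortices of 24-day-old rats, isolated by collagenase/DNAse digestion, dextran separation and mesh filtration.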

T1 sequence (Q63016 whole entry): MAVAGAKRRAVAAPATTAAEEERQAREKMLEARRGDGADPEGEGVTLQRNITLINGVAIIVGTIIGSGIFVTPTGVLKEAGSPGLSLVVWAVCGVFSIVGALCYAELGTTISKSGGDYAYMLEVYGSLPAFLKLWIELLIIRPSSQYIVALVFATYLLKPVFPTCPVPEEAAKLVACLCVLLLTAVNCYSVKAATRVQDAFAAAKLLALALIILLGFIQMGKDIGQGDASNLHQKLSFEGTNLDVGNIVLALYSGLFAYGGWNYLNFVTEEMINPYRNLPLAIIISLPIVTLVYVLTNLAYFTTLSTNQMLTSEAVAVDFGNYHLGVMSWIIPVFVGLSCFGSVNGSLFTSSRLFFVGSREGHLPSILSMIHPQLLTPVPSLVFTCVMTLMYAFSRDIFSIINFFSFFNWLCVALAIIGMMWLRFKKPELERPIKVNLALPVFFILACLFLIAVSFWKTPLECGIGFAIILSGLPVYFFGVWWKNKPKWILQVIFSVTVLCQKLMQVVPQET
T1 sequence (Q794F9 whole entry partner): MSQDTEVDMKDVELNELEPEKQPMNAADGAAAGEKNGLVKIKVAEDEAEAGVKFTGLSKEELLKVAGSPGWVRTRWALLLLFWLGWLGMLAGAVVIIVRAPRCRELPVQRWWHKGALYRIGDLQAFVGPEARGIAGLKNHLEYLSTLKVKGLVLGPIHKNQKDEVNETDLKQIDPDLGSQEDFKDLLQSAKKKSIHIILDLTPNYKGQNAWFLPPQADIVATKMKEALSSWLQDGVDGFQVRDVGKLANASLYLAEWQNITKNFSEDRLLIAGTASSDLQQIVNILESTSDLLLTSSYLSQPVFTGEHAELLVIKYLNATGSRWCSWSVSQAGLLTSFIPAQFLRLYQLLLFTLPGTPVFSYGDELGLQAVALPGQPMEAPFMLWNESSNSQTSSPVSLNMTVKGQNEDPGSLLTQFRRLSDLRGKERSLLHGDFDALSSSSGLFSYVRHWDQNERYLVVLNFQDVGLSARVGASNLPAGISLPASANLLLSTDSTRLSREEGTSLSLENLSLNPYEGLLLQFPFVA

Row | Structure (SMILES) | Comparison with the Binding of Phenylalanine (10^−4 M) | Comparison with the Binding of Phenylalanine (10^−5 M) | Comparison with the Binding of Phenylalanine (10^−6 M) | Status of Binding
1 | COc1ccc2[nH]c(SCc3ccc(-c4ccc(CC(N)C(=O)O)cc4)cc3)nc2c1 (stereo not shown) [Compound 91] | 1 (0 < X < 10 Rank 1) | 1 (0 < X < 10 Rank 1) | 0 (X < 0 Rank 0) | 
2 | O=C(Nc1ccc(-c2ccccc2)cc1)NC(Cc1cccc(CSc2nnc(-c3ccccc3)o2)c1)C(=O)O (stereo not shown) [Compound 49] | 2 (10 < X < 20 Rank 2) | 3 (X > 20 Rank 3) | 3 (X > 20 Rank 3) | 
3 | CN(C)CCn1nnnc1SCc1ccc(-c2ccc(CC(N)C(=O)O)cc2)cc1 (stereo not shown) [Compound 118] | 3 (X > 20 Rank 3) | 3 (X > 20 Rank 3) | 3 (X > 20 Rank 3) | 
4 | N[C@@H](Cc1cccc(CSc2ncnc3[nH]ncc23)n1)C(=O)O [drawing 472] |  |  |  | 0 (0: Δ ≦ −50%, no binding or very low binding affinity)
5 | COc1ccc(-n2nnnc2SCc2cccc(C[C@H](N)C(=O)O)c2)cc1 [drawing 467] |  |  |  | 3 (3: Δ > 10%, significantly higher binding affinity than phenylalanine)
6 | NC(Cc1cccc(CN2CC=CCC2)n1)C(=O)O (stereo not shown) [Compound 160] | 0 (X < 0 Rank 0) | 0 (X < 0 Rank 0) | 1 (0 < X < 10 Rank 1) | 
7 | NC(Cc1cccc(CSc2ncccc2C(=O)O)c1)C(=O)O (stereo not shown) [Compound 137] | 0 (X < 0 Rank 0) | 0 (X < 0 Rank 0) | 2 (10 < X < 20 Rank 2) | 
8 | NC(Cc1ccc(-c2ccc(CN3CCN(c4cccc(Cl)c4)CC3)cc2)cc1)C(=O)O (stereo not shown) [Compound 116] | 1 (0 < X < 10 Rank 1) | 2 (10 < X < 20 Rank 2) | 2 (10 < X < 20 Rank 2) | 
9 | NC(Cc1cccc(CSc2ccnc3cc(C(F)(F)F)ccc23)c1)C(=O)O (stereo not shown) [Compound 70] | 0 (X < 0 Rank 0) | 1 (0 < X < 10 Rank 1) | 0 (X < 0 Rank 0) | 
10 | NC(Cc1ccc(-c2ccc(CSc3nc4ccccc4c(=O)[nH]3)cc2)cc1)C(=O)O (stereo not shown) [Compound 155] | 0 (X < 0 Rank 0) | 0 (X < 0 Rank 0) | 2 (10 < X < 20 Rank 2) | 
11 | N[C@@H](Cc1cccc(CS(=O)(=O)c2nc3ccccc3[nH]2)n1)C(=O)O [drawing 473] |  |  |  | 0 (0: Δ ≦ −50%, no binding or very low binding affinity)
12 | N[C@@H](Cc1cccc(CSc2nc3ccccc3[nH]2)c1)C(=O)O [drawing 469] |  |  |  | 1 (1: −10 > Δ > −50%, lower binding affinity than phenylalanine)
13 | N#CC1(c2ccccc2)CCN(Cc2cccc(CC(N)C(=O)O)c2)CC1 (stereo not shown) [Compound 102] | 1 (0 < X < 10 Rank 1) | 1 (0 < X < 10 Rank 1) | 0 (X < 0 Rank 0) | 
14 | NC(Cc1cccc(CN2CCN(c3ccc(F)cc3)CC2)c1)C(=O)O (stereo not shown) [Compound 75] | 0 (X < 0 Rank 0) | 0 (X < 0 Rank 0) | 1 (0 < X < 10 Rank 1) | 
15 | N[C@@H](Cc1cccc(CSc2nnnn2-c2ccc(O)cc2)c1)C(=O)O [drawing 480] |  |  |  | 3 (3: Δ > 10%, significantly higher binding affinity than phenylalanine)
16 | NC(Cc1ccc(-c2ccc(CSc3ncccn3)cc2)cc1)C(=O)O (stereo not shown) [Compound 95] | 2 (10 < X < 20 Rank 2) | 3 (X > 20 Rank 3) | 2 (10 < X < 20 Rank 2) | 
17 | N[C@@H](Cc1cccc(CSc2nnnn2-c2ccccc2)c1)C(=O)O [drawing 468] |  |  |  | 3 (3: Δ > 10%, significantly higher binding affinity than phenylalanine)
18 | NC(=O)C(N)Cc1cccc(CSc2nnc(-c3ccccc3)[nH]2)c1 (stereo not shown) [Compound 14] | 0 (X < 0 Rank 0) | 3 (X > 20 Rank 3) | 2 (10 < X < 20 Rank 2) | 
19 | NC(Cc1cccc(CSc2nnnn2-c2ccc(O)cc2)c1)C(=O)O (stereo not shown) [Compound 3] | 3 (X > 20 Rank 3) | 3 (X > 20 Rank 3) | 3 (X > 20 Rank 3) | 
20 | O=C(Nc1ccc(-c2ccccc2)cc1)NC(Cc1cccc(CSc2nc3ccccc3o2)n1)C(=O)O (stereo not shown) [Compound 63] | 0 (X < 0 Rank 0) | 0 (X < 0 Rank 0) | 1 (0 < X < 10 Rank 1) | 
21 | O=C(O)C(Cc1cccc(CSc2nnc(-c3ccncc3)o2)c1)NS(=O)(=O)c1ccc(F)cc1 (stereo not shown) [Compound 12] | 0 (X < 0 Rank 0) | 0 (X < 0 Rank 0) | 2 (10 < X < 20 Rank 2) | 
22 | NC(Cc1cccc(CSc2nc(-c3ccccc3)c(-c3ccccc3)[nH]2)n1)C(=O)O (stereo not shown) [Compound 148] | 0 (X < 0 Rank 0) | 0 (X < 0 Rank 0) | 2 (10 < X < 20 Rank 2) | 
23 | N[C@@H](Cc1cccc(CSc2nccc(O)n2)c1)C(=O)O [drawing 474] |  |  |  | 1 (1: −10 > Δ > −50%, lower binding affinity than phenylalanine)
24 | O=C(Nc1ccc(-c2ccccc2)cc1)NC(Cc1cccc(CSc2nnnn2-c2ccc(O)cc2)c1)C(=O)O (stereo not shown) [Compound 51] | 0 (X < 0 Rank 0) | 3 (X > 20 Rank 3) | 2 (10 < X < 20 Rank 2) | 
25 | NC(Cc1cccc(CSc2nc3ccccc3c(=O)[nH]2)n1)C(=O)O (stereo not shown) [Compound 125] | 0 (X < 0 Rank 0) | 1 (0 < X < 10 Rank 1) | 2 (10 < X < 20 Rank 2) | 
26 | CN(C)CCn1nnnc1SCc1cccc(CC(N)C(=O)O)c1 (stereo not shown) [Compound 73] | 1 (0 < X < 10 Rank 1) | 3 (X > 20 Rank 3) | 1 (0 < X < 10 Rank 1) | 
27 | NC(=O)C(N)Cc1cccc(CSc2nnnn2-c2ccccc2)c1 (stereo not shown) [Compound 9] | 0 (X < 0 Rank 0) | 1 (0 < X < 10 Rank 1) | 0 (X < 0 Rank 0) | 
28 | N[C@@H](Cc1ccccc1)C(=O)NC(Cc1cccc(CSc2nnc(-c3ccccc3)o2)c1)C(=O)O (stereo partly shown) [Compound 48] | 0 (X < 0 Rank 0) | 1 (0 < X < 10 Rank 1) | 1 (0 < X < 10 Rank 1) | 
29 | O=C(NC(Cc1cccc(CSc2nnc(-c3ccccc3)[nH]2)c1)C(=O)O)NC(c1ccccc1)c1ccccc1 (stereo not shown) [Compound 57] | 3 (X > 20 Rank 3) | 3 (X > 20 Rank 3) | 3 (X > 20 Rank 3) | 
30 | N#CC1(c2ccccc2)CCN(Cc2cccc(CC(N)C(=O)O)n2)CC1 (stereo not shown) [Compound 117] | 0 (X < 0 Rank 0) | 0 (X < 0 Rank 0) | 1 (0 < X < 10 Rank 1) | 
